Key:
Bel7404 cells = assay: MTT cell viability assay; assay type: cell-based; details: Homo sapiens
Experimental: (§1) To reconfirm the biological activity, we chose the most sensitive cell line Bel7404 from cellular assay and the widely used and the most characterized cell line HepG2 to examine the effects of E5 on cell proliferation by MTT assay. […] Given that cell cycle arrest plays a significant role in inhibiting cancer cell growth, we subsequently examined the effects of E5 on cell cycle distribution of Bel7404 and HepG2 cells.
(§2) Cell viability was measured by methyl thiazolyl tetrazolium (MTT) assay. Cells were seeded in 96-well plate at a density of 1 × 10^4 cells/well. After overnight incubation, solution of E5 in DMSO with incremental concentrations (0–30 μM) were added to the cells and further incubated for 3 days. During this period, three wells were selected from each group of cells every day for the MTT (50 μg/well) assay. After the cells had been incubated at 37 °C for 4 h, the reaction was stopped by adding 150 μL/well of DMSO, and incubating for 10 min. The absorbance was measured at a wavelength of 490 nm by a Microplate Reader (BioTek, USA).

HepG2 cells = assay: MTT cell viability assay; assay type: cell-based; details: Homo sapiens
Experimental: as §1, §2

BLK = BLK (Homo sapiens, UniProt P51451); assay: Kinase profiling (Kinase-Glo Plus or ADP-Glo); assay type: biochemical; details: averages of two separate experiments
Experimental: (§3) To better characterize kinase inhibition, the ability of E5 to inhibit a panel of purified kinases was assessed.
(§4) PDGFR kinase activity was measured using Caliper microfluidic mobility shift technology. Briefly, 2 μL compound solution (25 μM) in 25% DMSO per well were added into the 384 well microtiter plates. Then, 10 μL per well of enzyme solution (100 mM HEPES, 10 mM MgCl2, Brij35 (30%) 100 μL, 1 mM DTT, 20 ng enzyme) was added. After a brief centrifugation at 1,000 rpm, the kinase reactions were started by addition of 38 μL per well of peptide/ATP-solution (40 μM ATP, 6.5 μM peptide 5′-FAM-KKKKEEIYFFF-NH2, Tris-HCl buffer, pH 7.0) incubated at 30 °C for 60 min and stopped by the addition of 20 μL 35 mM EDTA per well. The electrophoretic separation of the phosphorylated and non-phosphorylated peptides was then carried out on LabChip EZ Reader II (Caliper Life Sciences). All other kinase reactions were carried out as previously reported using the Kinase-Glo Plus or ADP-Glo assay. Kinase inhibition rates were calculated per manufacturer’s instructions.

ABL2 = ABL2 (Homo sapiens, UniProt P42684); assay: Kinase profiling (Kinase-Glo Plus or ADP-Glo); assay type: biochemical; details: averages of two separate experiments
Experimental: as §3, §4

EGFR = EGFR (Homo sapiens, UniProt P00533); assay: Kinase profiling (Kinase-Glo Plus or ADP-Glo); assay type: biochemical; details: averages of two separate experiments
EGFR, sequence (P00533 25-1210, species assumed): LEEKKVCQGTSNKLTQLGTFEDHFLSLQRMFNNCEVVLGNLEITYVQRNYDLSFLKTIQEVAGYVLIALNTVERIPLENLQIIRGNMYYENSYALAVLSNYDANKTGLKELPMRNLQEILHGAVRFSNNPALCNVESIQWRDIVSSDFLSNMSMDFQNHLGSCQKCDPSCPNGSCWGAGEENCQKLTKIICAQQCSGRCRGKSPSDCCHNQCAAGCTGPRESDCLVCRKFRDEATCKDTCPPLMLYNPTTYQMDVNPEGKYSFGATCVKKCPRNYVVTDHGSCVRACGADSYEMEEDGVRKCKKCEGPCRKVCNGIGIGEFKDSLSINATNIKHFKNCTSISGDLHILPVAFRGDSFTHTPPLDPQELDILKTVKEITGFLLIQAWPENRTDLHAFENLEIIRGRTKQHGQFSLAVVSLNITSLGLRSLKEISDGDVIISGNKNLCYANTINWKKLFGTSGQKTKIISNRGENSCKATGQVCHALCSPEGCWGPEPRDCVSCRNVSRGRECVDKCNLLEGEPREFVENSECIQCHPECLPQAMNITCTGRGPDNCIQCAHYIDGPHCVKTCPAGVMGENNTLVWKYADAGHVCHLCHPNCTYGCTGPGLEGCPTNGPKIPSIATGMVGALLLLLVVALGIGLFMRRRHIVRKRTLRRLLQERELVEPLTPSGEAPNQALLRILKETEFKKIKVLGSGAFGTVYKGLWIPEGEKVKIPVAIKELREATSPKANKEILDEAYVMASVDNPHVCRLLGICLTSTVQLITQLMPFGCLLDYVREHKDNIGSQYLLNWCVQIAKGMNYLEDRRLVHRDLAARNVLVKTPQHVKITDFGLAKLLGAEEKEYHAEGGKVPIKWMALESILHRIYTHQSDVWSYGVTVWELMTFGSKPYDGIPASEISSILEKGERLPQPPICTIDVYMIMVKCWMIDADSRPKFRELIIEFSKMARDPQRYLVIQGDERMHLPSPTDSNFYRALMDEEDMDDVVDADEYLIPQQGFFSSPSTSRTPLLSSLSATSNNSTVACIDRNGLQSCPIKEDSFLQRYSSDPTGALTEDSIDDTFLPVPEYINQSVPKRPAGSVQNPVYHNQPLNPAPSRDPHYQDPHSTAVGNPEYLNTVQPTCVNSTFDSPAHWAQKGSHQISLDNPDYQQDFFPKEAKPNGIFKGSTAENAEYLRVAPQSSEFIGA
Experimental: as §3, §4

FGFR1 = FGFR1 (Homo sapiens, UniProt P11362); assay: Kinase profiling (Kinase-Glo Plus or ADP-Glo); assay type: biochemical; details: averages of two separate experiments
FGFR1, sequence (P11362 22-822, species assumed): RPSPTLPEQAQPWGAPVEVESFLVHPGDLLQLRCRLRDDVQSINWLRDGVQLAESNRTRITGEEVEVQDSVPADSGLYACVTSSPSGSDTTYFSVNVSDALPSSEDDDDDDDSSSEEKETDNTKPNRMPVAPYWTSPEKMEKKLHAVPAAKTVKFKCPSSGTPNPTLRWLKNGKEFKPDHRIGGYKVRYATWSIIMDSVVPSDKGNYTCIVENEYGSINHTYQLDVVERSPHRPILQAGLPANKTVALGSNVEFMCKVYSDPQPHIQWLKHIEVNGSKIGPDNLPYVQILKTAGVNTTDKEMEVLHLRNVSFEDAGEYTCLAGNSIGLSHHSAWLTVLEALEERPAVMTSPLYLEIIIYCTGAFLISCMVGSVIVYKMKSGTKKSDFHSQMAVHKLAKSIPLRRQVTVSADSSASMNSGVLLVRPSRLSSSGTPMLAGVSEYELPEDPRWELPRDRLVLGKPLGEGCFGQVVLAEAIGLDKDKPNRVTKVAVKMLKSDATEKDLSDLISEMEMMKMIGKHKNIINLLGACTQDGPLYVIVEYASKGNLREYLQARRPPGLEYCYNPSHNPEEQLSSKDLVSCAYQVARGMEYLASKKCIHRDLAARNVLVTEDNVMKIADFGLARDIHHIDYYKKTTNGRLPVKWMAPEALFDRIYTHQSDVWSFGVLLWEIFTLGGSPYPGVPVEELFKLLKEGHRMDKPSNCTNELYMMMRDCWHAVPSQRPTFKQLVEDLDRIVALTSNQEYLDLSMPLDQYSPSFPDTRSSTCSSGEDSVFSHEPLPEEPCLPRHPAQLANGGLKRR
Experimental: as §3, §4

CSF1R = CSF1R (Homo sapiens, UniProt P07333); assay: Kinase profiling (Kinase-Glo Plus or ADP-Glo); assay type: biochemical; details: averages of two separate experiments
CSF1R, sequence (P07333 20-972): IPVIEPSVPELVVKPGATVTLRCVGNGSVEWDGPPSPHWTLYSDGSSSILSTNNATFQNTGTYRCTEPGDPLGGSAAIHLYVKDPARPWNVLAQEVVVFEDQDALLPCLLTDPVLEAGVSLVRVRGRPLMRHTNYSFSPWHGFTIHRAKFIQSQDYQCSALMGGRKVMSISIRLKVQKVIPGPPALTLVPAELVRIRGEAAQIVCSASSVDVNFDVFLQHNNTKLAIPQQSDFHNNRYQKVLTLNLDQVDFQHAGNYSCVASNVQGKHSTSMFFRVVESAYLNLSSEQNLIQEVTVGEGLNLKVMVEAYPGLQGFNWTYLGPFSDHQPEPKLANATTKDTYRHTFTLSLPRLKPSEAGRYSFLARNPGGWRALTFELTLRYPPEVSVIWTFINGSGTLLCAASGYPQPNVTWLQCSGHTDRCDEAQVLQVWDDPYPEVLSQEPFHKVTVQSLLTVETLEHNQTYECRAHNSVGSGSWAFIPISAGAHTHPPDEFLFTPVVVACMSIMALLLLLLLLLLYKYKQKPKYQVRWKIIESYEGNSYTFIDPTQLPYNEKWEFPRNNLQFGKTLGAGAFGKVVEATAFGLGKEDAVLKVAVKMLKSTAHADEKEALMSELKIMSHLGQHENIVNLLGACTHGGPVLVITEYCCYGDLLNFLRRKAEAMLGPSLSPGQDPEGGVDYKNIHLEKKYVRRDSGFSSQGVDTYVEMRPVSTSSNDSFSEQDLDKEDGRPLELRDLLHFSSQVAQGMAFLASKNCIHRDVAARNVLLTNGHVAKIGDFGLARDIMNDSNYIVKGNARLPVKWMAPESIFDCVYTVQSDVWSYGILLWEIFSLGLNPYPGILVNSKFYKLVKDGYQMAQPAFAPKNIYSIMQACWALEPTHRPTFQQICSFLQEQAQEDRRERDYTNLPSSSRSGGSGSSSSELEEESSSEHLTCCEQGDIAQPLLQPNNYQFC
Experimental: as §3, §4

Raf-1 = Raf-1 (Homo sapiens, UniProt P04049); assay: Kinase profiling (Kinase-Glo Plus or ADP-Glo); assay type: biochemical; details: averages of two separate experiments
Raf-1, sequence (P04049 whole entry, species assumed): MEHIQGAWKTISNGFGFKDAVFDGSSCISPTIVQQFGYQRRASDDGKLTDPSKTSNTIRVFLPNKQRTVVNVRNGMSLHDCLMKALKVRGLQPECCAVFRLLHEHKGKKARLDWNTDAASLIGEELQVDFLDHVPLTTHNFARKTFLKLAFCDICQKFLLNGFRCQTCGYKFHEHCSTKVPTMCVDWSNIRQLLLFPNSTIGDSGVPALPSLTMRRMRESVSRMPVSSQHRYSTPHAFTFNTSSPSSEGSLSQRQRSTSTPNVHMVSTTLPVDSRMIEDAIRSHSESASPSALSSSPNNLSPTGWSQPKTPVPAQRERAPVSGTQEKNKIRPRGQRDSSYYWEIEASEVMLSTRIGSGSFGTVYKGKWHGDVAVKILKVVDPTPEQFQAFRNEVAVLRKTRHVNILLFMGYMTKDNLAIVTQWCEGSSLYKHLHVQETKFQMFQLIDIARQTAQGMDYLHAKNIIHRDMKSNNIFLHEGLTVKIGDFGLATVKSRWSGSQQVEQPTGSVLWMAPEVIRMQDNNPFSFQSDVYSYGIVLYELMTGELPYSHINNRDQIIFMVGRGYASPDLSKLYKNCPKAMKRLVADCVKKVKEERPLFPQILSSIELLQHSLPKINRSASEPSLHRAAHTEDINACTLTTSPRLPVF
Experimental: as §3, §4

ABL1 = ABL1 (Homo sapiens, UniProt P00519); assay: Kinase profiling (Kinase-Glo Plus or ADP-Glo); assay type: biochemical; details: averages of two separate experiments
Experimental: as §3, §4

FGFR2 = FGFR2 (Homo sapiens, UniProt P21802); assay: Kinase profiling (Kinase-Glo Plus or ADP-Glo); assay type: biochemical; details: averages of two separate experiments
Experimental: as §3, §4

c-KIT = c-KIT (Homo sapiens, UniProt P10721); assay: Kinase profiling (Kinase-Glo Plus or ADP-Glo); assay type: biochemical; details: averages of two separate experiments
Experimental: as §3, §4

B-raf = B-raf (Homo sapiens, UniProt P15056); assay: Kinase profiling (Kinase-Glo Plus or ADP-Glo); assay type: biochemical; details: averages of two separate experiments
Experimental: as §3, §4

LCK = LCK (Homo sapiens, UniProt P06239); assay: Kinase profiling (Kinase-Glo Plus or ADP-Glo); assay type: biochemical; details: averages of two separate experiments
LCK, sequence (P06239 whole entry, species assumed): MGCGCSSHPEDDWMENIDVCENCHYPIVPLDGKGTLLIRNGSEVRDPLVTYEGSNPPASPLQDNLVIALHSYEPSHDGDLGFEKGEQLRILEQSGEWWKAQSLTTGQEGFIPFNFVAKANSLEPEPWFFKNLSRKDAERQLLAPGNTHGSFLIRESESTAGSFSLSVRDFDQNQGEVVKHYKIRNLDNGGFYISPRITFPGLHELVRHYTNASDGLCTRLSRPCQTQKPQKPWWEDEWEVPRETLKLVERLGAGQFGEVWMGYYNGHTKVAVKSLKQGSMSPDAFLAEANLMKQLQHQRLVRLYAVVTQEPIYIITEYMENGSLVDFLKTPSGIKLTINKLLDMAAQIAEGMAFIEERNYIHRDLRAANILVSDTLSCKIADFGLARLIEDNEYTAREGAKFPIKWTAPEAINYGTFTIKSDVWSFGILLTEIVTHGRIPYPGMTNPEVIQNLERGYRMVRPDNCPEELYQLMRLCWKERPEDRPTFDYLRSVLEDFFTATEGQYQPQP
Experimental: as §3, §4

FLT3 = FLT3 (Homo sapiens, UniProt P36888); assay: Kinase profiling (Kinase-Glo Plus or ADP-Glo); assay type: biochemical; details: averages of two separate experiments
FLT3, sequence (P36888 27-993, species assumed): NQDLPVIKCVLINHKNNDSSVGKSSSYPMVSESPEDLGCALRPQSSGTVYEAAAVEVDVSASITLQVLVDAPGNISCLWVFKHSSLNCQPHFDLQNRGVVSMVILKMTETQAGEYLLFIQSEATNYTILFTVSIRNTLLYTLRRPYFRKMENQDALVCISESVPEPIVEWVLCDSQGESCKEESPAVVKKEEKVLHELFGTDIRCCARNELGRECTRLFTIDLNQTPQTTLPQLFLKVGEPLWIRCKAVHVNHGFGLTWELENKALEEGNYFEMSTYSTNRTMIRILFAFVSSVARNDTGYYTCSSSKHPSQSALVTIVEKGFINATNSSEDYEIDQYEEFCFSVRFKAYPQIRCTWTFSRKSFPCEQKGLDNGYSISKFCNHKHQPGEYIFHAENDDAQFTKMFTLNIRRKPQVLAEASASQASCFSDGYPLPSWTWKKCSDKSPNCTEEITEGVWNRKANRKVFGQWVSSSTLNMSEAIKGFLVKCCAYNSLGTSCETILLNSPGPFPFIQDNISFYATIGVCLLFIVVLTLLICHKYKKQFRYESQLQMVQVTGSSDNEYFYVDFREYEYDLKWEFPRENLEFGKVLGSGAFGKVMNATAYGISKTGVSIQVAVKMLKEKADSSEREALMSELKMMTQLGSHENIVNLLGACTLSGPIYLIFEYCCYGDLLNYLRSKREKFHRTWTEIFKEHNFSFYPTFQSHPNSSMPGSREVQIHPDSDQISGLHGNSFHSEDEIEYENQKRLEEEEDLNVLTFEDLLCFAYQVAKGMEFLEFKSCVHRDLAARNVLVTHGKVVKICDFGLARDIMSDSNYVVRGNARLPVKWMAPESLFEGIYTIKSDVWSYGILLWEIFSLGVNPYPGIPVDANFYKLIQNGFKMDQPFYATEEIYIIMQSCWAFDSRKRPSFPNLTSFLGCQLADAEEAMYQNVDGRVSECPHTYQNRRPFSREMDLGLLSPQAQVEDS
Experimental: as §3, §4

MHCC97-L = assay: CellTiter-Glo luminescent cell viability assay; assay type: cell-based; details: MHCC97L, 120 h incubation, read-out: Anti-proliferative activity IC50 MHCC97-L
Text: (§5) The in vitro antitumor activity of all compounds was screened against six HCC cell lines by CellTiter-Glo luminescent cell viability assay as described earlier. […] After a comprehensive assessment of PDGFR inhibition, cellular activity against HCC cells as well as potential druggability, E5 was chosen to investigate its kinase profiling, antitumor activity and molecular mechanism in the following study. […]
(§6) authenticated by using short tandem repeat (STR) matching analysis. No mycoplasma contamination was detected.
(§7) CellTiter-Glo luminescent cell viability assay
(§8) For experiments hepatocellular carcinoma cells were seeded at 4000 cells per well in 96-well plates. After overnight incubation, solution of compounds in DMSO at various concentrations were added to the cells and further incubated for 120 h. Cell viability was measured with the CellTiter-Glo Luminescent Cell Viability Assay (Promega) according to the manufacturer’s instructions. Luminescence was measured using an EnVision Multilabel Plate Reader (Perkin-Elmer). The cytotoxicity of the compounds was expressed as the percent age of luminescence relative to that of untreated cells . The concentration of compound producing 50% of cell proliferation (IC50) was calculated by nonlinear regression analysis of the response-concentration (log) curve, using the Graph-Pad Prism program package (Graph Pad Software; San Diego, CA). Results are expressed as the means of two […] experiments

SMMC-7721 = assay: CellTiter-Glo luminescent cell viability assay; assay type: cell-based; details: Homo sapiens, SMMC-7721, 120 h incubation, read-out: Anti-proliferative activity IC50 SMMC-7721
Text: as §5, §6, §7, §8

Hep3B = assay: CellTiter-Glo luminescent cell viability assay; assay type: cell-based; details: Homo sapiens, Hep3B, 120 h incubation, read-out: Anti-proliferative activity IC50 Hep3B
Text: as §5, §6, §7, §8

SNU368 = assay: CellTiter-Glo luminescent cell viability assay; assay type: cell-based; details: 120 h incubation, read-out: Anti-proliferative activity IC50 SNU368
Text: as §5, §6, §7, §8

BEL7404 = assay: CellTiter-Glo luminescent cell viability assay; assay type: cell-based; details: Homo sapiens, BEL-7404, 120 h incubation, read-out: Anti-proliferative activity IC50 BEL7404
Text: as §5, §6, §7, §8

QGY-7703 = assay: CellTiter-Glo luminescent cell viability assay; assay type: cell-based; details: Homo sapiens, QGY-7703, 120 h incubation, read-out: Anti-proliferative activity IC50 QGY-7703
Text: as §5, §6, §7, §8

SMILES: Cc1ccc(NC(=O)c2ccc(CN3CCN(C)CC3)cc2)cc1Oc1nccc(-c2cc3ccccc3o2)n1 [E5, N-(3-((4-(benzofuran-2-yl)pyrimidin-2-yl)oxy)-4-methylphenyl)-4-((4-methylpiperazin-1-yl)methyl)benzamide]
- IC50 (Bel7404 cells; BEL-7404, 24 h): 18.2 ± 2.38 µM
- IC50 (Bel7404 cells; BEL-7404, 48 h): 9.68 ± 1.46 µM
- IC50 (Bel7404 cells; BEL-7404, 72 h): 6.62 ± 0.15 µM
- IC50 (HepG2 cells; HepG2, 24 h, 24 h): 8.49 ± 0.82 µM
- IC50 (HepG2 cells; HepG2, 48 h, 48 h): 5.44 ± 0.23 µM
- IC50 (HepG2 cells; HepG2, 72 h, 72 h): 4.72 ± 0.96 µM
- IC50 (BLK): > 25 µM
- IC50 (ABL2): 4.36 µM
- IC50 (EGFR): > 25 µM
- IC50 (FGFR1): > 25 µM
- IC50 (CSF1R): 1.12 µM
- IC50 CSF1R (CSF1R): moderate inhibitory activity
- IC50 (Raf-1): > 25 µM
- IC50 (ABL1): 9.35 µM
- IC50 (FGFR2): > 25 µM
- IC50 (c-KIT): 0.51 µM
- IC50 (B-raf): > 25 µM
- IC50 (LCK): > 25 µM
- IC50 (FLT3): > 25 µM
- IC50 FLT3 (FLT3): no inhibition
- IC50 (MHCC97-L): 10 µM
- IC50 (SMMC-7721): 1 µM
- IC50 (Hep3B): 2.6 µM
- IC50 (SNU368): 8.9 µM
- IC50 (BEL7404): 0.8 µM
- IC50 (QGY-7703): 15.1 µM

— PMC6053381, “Novel 2-phenyloxypyrimidine derivative induces apoptosis and autophagy via inhibiting PI3K pathway and activating MAPK/ERK signaling in hepatocellular carcinoma cells” (Scientific Reports, 2018)
